Measurements taken from article PMC7174603, “Functional Analysis of Two Odorant-Binding Proteins, MaltOBP9 and MaltOBP10, in Monochamus alternatus Hope” (Frontiers in Physiology, 2020).

Experiments:
[1] = biological target: T1, MaltOBP10 (Monochamus alternatus, UniProt A0A1I9HZL5); experiment: biochemical; set-up: 1-NPN fluorescence displacement competitive binding to 2 uM recombinant OBP; Ki from IC50
T1 construct: gene obp10; said to encode mature protein (clone primer starts at ATG)
T1 sequence (A0A1I9HZL5 1-144 limits assumed): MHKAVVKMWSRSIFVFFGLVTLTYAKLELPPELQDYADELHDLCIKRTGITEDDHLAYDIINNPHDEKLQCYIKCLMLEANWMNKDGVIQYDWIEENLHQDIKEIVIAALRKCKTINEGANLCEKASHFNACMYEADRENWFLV
Description: (§1) Fluorescence-binding assays were performed to determine the binding affinities of MaltOBP9 and MaltOBP10 with 17 volatiles in neutral and acidic pH conditions separately using N-phenyl-1-naphthylamine (1-NPN) as the fluorescent probe. 1-NPN and all of the other chemicals used in the binding assays were purchased from Sigma-Aldrich (St. Louis, MO, United States). All of the ligand stock solutions were prepared in spectrophotometric grade methanol. The binding constants for 1-NPN were determined by adding aliquots of 1 mM 1-NPN to separate samples containing 2 μM of each OBP in 50 mM Tris–HCl at pH 7.4 and room temperature. The binding of 1-NPN was measured at an excitation wavelength of 337 nm and the fluorescence intensity was recorded between 300 and 600 nm during a high-speed scan using an RF-5301PC fluorescence spectrophotometer with a 1-cm light path and a quartz cuvette. Saturation curves were constructed for the binding of 1-NPN with the OBPs and the dissociation constant (Kd) of the binding reaction was calculated by performing Scatchard analysis of the data using the Prism 5 program (GraphPad, La Jolla, CA, United States). The binding analyses were performed based on the assumption that the protein was completely active and that the stoichiometry of binding was 1:1 at saturation. Aliquots of the competitor ligand were added to a sample containing 2 μM of each separate OBP and a standard concentration of 1-NPN. […] The binding data were collected during three independent high-speed scans. Ki representing the Kd of the competitor was determined based on the IC50 value (half maximal inhibitory concentration) for the competitor as the concentration of the competitor that displaced 50% of the bound 1-NPN at a standard total 1-NPN concentration (bound plus free) at equilibrium. Ki was calculated according to the following equation: Ki = [IC50]/(1+[1-NPN]/K), where 1-NPN is the free concentration of 1-NPN and K1–NPN is Kd for the 1-NPN-OBP binding reaction determined by Scatchard analysis ([Campanacci et al., 2001]). After confirmation by SDS-PAGE, the purified MaltOBP9 and MaltOBP10 proteins were used in fluorescence-binding assays to determine their binding affinities with different volatiles that come from forest. First, we analyzed the binding of the fluorescent probe 1-NPN with MaltOBP9 and MaltOBP10 (Figure 6). […] The binding affinities (Ki < 50) ([Zheng et al., 2016]) with all of the ligands indicted the broad binding ranges of MaltOBP9 and MaltOBP10 at pH 7.4. […] The change in the pH appeared to have less impact on the binding with MaltOBP10.

[2] = biological target: T2, MaltOBP9 (Monochamus alternatus, UniProt A0A1I9HZK8); experiment: biochemical; set-up: 1-NPN fluorescence displacement competitive binding to 2 uM recombinant OBP; Ki from IC50
T2 construct: gene obp9; said to encode mature protein (clone primer starts at ATG)
T2 sequence (A0A1I9HZK8 1-140 limits assumed): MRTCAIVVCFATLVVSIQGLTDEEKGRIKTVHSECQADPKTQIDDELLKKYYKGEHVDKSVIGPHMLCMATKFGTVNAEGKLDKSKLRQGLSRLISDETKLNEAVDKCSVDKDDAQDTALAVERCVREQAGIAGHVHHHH
Description: as §1

[3] = biological target: T2, MaltOBP9; experiment: fluorescence competitive binding, 1-NPN displacement; conditions: read-out: MaltOBP9 / pH7.4
From the text: fluorescence competitive binding, 1-NPN displacement on MaltOBP9

[4] = biological target: T1, MaltOBP10; experiment: as above; conditions: read-out: MaltOBP10 / pH7.4
From the text: fluorescence competitive binding, 1-NPN displacement on MaltOBP10

[5] = biological target: T2, MaltOBP9; experiment: fluorescence titration, Scatchard analysis; type: binding; conditions: read-out: MaltOBP9 / pH7.4
From the text: fluorescence titration, Scatchard analysis on MaltOBP9

[6] = biological target: T1, MaltOBP10; experiment: fluorescence titration, Scatchard analysis; type: binding; conditions: read-out: MaltOBP10 / pH7.4
From the text: fluorescence titration, Scatchard analysis on MaltOBP10

[7] = biological target: T1, MaltOBP10; experiment: biochemical; set-up: direct 1-NPN fluorescence saturation binding to 2 uM recombinant OBP; Kd by Scatchard analysis; conditions: pH 5.0; read-out: MaltOBP10 / pH5.0
Description: (§2) Fluorescence-binding assays were performed to determine the binding affinities of MaltOBP9 and MaltOBP10 with 17 volatiles in neutral and acidic pH conditions separately using N-phenyl-1-naphthylamine (1-NPN) as the fluorescent probe. 1-NPN and all of the other chemicals used in the binding assays were purchased from Sigma-Aldrich (St. Louis, MO, United States). All of the ligand stock solutions were prepared in spectrophotometric grade methanol. The binding constants for 1-NPN were determined by adding aliquots of 1 mM 1-NPN to separate samples containing 2 μM of each OBP in 50 mM Tris–HCl at pH 7.4 and room temperature. The binding of 1-NPN was measured at an excitation wavelength of 337 nm and the fluorescence intensity was recorded between 300 and 600 nm during a high-speed scan using an RF-5301PC fluorescence spectrophotometer with a 1-cm light path and a quartz cuvette. Saturation curves were constructed for the binding of 1-NPN with the OBPs and the dissociation constant (Kd) of the binding reaction was calculated by performing Scatchard analysis of the data using the Prism 5 program (GraphPad, La Jolla, CA, United States). […] Ki was calculated according to the following equation: Ki = [IC50]/(1+[1-NPN]/K), where 1-NPN is the free concentration of 1-NPN and K1–NPN is Kd for the 1-NPN-OBP binding reaction determined by Scatchard analysis ([Campanacci et al., 2001]). […]

[8] = biological target: T2, MaltOBP9; experiment: biochemical; set-up: direct 1-NPN fluorescence saturation binding to 2 uM recombinant OBP; Kd by Scatchard analysis; conditions: pH 5.0; read-out: MaltOBP9 / pH5.0
Description: as §2

[9] = pH 5.0, read-out: MaltOBP10 / pH5.0
[10] = pH 7.4, read-out: MaltOBP10 / pH7.4
[11] = pH 5.0, read-out: MaltOBP9 / pH5.0
[12] = pH 7.4, read-out: MaltOBP9 / pH7.4

Structure (SMILES)	Ki [1, 9] [µM]	Ki [1, 10] [µM]	Ki [2, 12] [µM]	Ki [2, 11] [µM]	Ki [3] [µM]	Ki [4] [µM]	also measured
C=C(C)C1CCC2(C)OC2C1 (single isomer, unassigned; (+)) [(+)-Limonene oxide]	–	–	–	–	–	–	Ki ([1]; pH 5.0, binder, read-out: MaltOBP10 / pH5.0): 46.1 ± 4.9 µM; Ki ([1]; pH 7.4, binder, read-out: MaltOBP10 / pH7.4): 19.8 ± 1.78 µM; Ki ([2]; pH 5.0, binder, read-out: MaltOBP9 / pH5.0): 48.8 ± 4.51 µM; Ki ([2]; pH 7.4, binder, read-out: MaltOBP9 / pH7.4): 43.3 ± 0.74 µM
Cc1cc(C(C)(C)C)c(O)c(C(C)(C)C)c1 [Butylated hydroxytoluene]	–	–	–	3.57 ± 0.58	9.58 ± 0.28	20.1 ± 2.75	–
C=C1[C@H]2CC[C@@H]3[C@H]2[C@H](C(C)C)CC[C@]13C [(+)-Sativene]	–	–	–	–	–	–	Ki ([3]; pH 7.4, 50 mM Tris-HCl, room temperature, competitive with 1-NPN, 2 μM protein): 19.5 ± 0.36 µM
C=C(C)[C@@H]1CC=C(C)CC1 [S-(−)-Limonene]	51.7 ± 5.74	–	29.2 ± 1.81	12 ± 0.86	–	18.4 ± 0.67	–
C=CC(=C)CCC=C(C)C [Myrcene]	19.37 ± 0.02	–	–	3.96 ± 0.78	7.77 ± 0.14	12.4 ± 0.5	–
CC1=CC[C@@H]2[C@@H]3[C@H]1[C@@]2(C)CCCC3(C)C [(+)-α-longipinene]	21.2 ± 1.75	–	–	34.7 ± 0.94	12.5 ± 0.67	11.6 ± 0.74	–
C=C1CC/C=C(\C)CC[C@@H]2[C@@H]1CC2(C)C [β-Caryophyllene]	23.5 ± 1.72	–	–	129 ± 9.52	16.36 ± 0.04	16.3 ± 1.97	–
c1ccc(Nc2cccc3ccccc23)cc1 [1-NPN]	–	–	–	–	–	–	Kd [5]: 1.7 ± 0.21 µM; Kd [6]: 1.35 ± 0.09 µM; Kd [7]: 5.88 ± 0.69 µM; Kd [8]: 0.62 ± 0.18 µM
CC1=CCC(=C(C)C)CC1 [α-terpinolene]	15.6 ± 1.44	–	22.2 ± 0.34	18.5 ± 0.23	–	17.5 ± 0.33	–
C=C1CC[C@H]2O[C@]2(C)CC[C@@H]2[C@@H]1CC2(C)C [(−)-caryophyllene oxide]	–	–	–	39.3 ± 0.73	15.3 ± 0.94	16.4 ± 0.4	–
CC1=CC[C@@H]2C[C@H]1C2(C)C [(+)-α-pinene]	17.3 ± 3.16	–	21.1 ± 2.84	> 50	–	13.3 ± 1.94	–

Now from value to molecule, other results behind:

Ki [1, 9] [µM]	Ki [1, 10] [µM]	Ki [2, 12] [µM]	Structure (SMILES)	Ki [2, 11] [µM]	Ki [3] [µM]	Ki [4] [µM]	also measured
32.5 ± 4.28	42.5 ± 0.82	25.1 ± 0.76	CC1=CCC2C(C1)C2(C)C (stereo not drawn) [3-carene]	38.12 ± 0.23	–	–	–
24.7 ± 1.29	22.7 ± 1.23	27.8 ± 1.04	CC1(C)C(=O)[C@@]2(C)CC[C@@H]1C2 [(+)-Fenchone]	46.2 ± 2.59	–	–	–
55.5 ± 9.88	23.9 ± 1.89	–	C=C(C)[C@H]1CC=C(C)CC1 [R-(+)-Limonene]	> 50	17.1 ± 2.24	–	–
21.2 ± 3.49	26.2 ± 1.76	25.9 ± 0.76	CC1(C)[C@H]2CC[C@]1(C)C(=O)C2 (racemic) [Camphor]	50.5 ± 3.68	–	–	–
35.4 ± 0.63	23.8 ± 2.33	–	Cc1ccc(C(C)C)cc1 [p-cymene]	> 50	11.7 ± 0.23	–	–
14.8 ± 0.57	20.6 ± 1.22	22.6 ± 1.08	C=C1[C@@H]2CC[C@@H](C2)C1(C)C [Camphene]	> 50	–	–	–
62.8 ± 1.08	25.8 ± 3.78	–	C=C1CC[C@@H]2C[C@H]1C2(C)C [(+)-β-pinene]	21.7 ± 0.65	–	–	–
